Data on one compound can be found in patent US9427408B2, “Silica-matrix forming compositions, materials formed therefrom, and methods of using the same” (priority 2011, dated 2016).

The test system of one data set is MEF cells. In kind it is cell-based. The note with it: 0.19 and 0.38 M EG, 48 h incubation. As for the experimental part:
(§1) Human foreskin fibroblasts (HFF), and mouse embryonic fibroblasts (MEF) were obtained from the American Type Cell Collection (Manasas, Va.). HFF and MEF cells were cultured in DMEM basal media supplemented with 15% fetal bovine serum (FBS), and 1% penicillin/streptomycin. Cells were incubated in a 5% CO2 atmosphere at 37° C. until they reached 80-90% confluence. Cells were then washed with phosphate buffer saline (PBS) and trypsinized with 0.25% Trypsin-EDTA for 5 min at 37° C. For cytotoxicity measurements and encapsulation experiments, cells were centrifuged at 800 rpm for 5 min. The supernatant was removed and the pelleted cells were suspended in their own growth media at a concentration of about 500,000 cells/ml.
(§2) Membrane integrity of the encapsulated cells in silica and SPEG gels was measured using a live-dead fluorescence assay containing Hoechst (H) and Propidium Iodide (PI) fluorescent dyes. A Nikon Eclipse T200 microscope (Nikon Instruments Inc., Melville, N.Y.) equipped with 10×, and 20× objectives were used to collect the bright field and fluorescent images.
(§3) MA of the encapsulated cells was measured with alamar blue (AB) fluorescence. For fluorescence measurements a SpectraMAX Gemini microplate reader (Molecular Devices Inc, Sunnyvale, Calif.) was used. The samples were excited at 540 nm and their emission was measured at 590 nm. LDH assay was performed 24 h after encapsulation of the cells. The assay was performed using a commercially available kit (Roche Applied Science, Indianapolis, Ind.). The levels of extracellular LDH activity were determined using a UV-vis SpectraMAX microplate reader (Molecular Devices, Sunnyvale, Calif.) by absorbance at 492 nm.
(§4) During the encapsulation process, mammalian cells were exposed to individual and aggregated SNPs in the surrounding solutions as gel formation proceeds. SNPs can be mildly cytotoxic. The toxicity of the encapsulation process was analyzed by incubating mammalian cells in 0.01 and 0.03 M SNP solutions. These were the concentrations used in the gels. After 24 h of incubation in the presence of SNPs, the cell membrane integrity and MA was measured.
(§5) Another factor for cytotoxicity is the formation of cytotoxic by-products such as EG during the hydrolysis reaction. HFF and MEF cells were incubated with 0.19 and 0.38 M EG to test for cytotoxicity. The concentrations of EG used in these experiments were based on the stoichiometric reaction of 10% (v/v) THEOS assuming a complete reaction. […] FIG. 6 illustrates cytotoxicity of SNPs and EG on: (A) HFF, (B) MEF.

A further data set deals with HFF cells. In kind it is cell-based. The note with it: 0.19 and 0.38 M EG, 48 h incubation. The protocol:
as §1, §2, §3, §4, §5

With `OCCO` [EG, ethylene glycol], the cell membrane damage result in the data set on MEF cells and in the data set with HFF cells was “did not cause any cell membrane damage” each time. Moreover, the “effect on MA of the cells” value with MEF cells and in the data set on HFF cells was “nor had any effects on the MA” throughout.
